What was measured:
[1] = test system: purple nutsedge; experiment: Test B pre/postemergence purple nutsedge; format: in vivo, Cyperus rotundus
In short: (§1)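 Herbicidal effect was estimated by eye on a ten-point control scale after plants spent twelve to sixteen days in a greenhouse following soil or foliar treatment. Foliar sprays targeted plants at one to four leaves; all doses were formulated in a non-phytotoxic solvent with surfactant.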

[2] = test system: cocklebur; experiment: Test B pre/postemergence cocklebur; format: in vivo, Xanthium strumarium
In short: as §1

[3] = test system: giant foxtail; experiment: Test B pre/postemergence giant foxtail; format: in vivo, Setaria faberii
In short: as §1

[4] = test system: wild oat; experiment: Test B pre/postemergence wild oat; format: in vivo, Avena fatua
In short: as §1

[5] = test system: pigweed; experiment: Test B pre/postemergence pigweed; format: in vivo, Amaranthus retroflexus
In short: as §1

[6] = test system: soybean; experiment: Test B pre/postemergence soybean; format: in vivo, Glycine max
In short: as §1

[7] = test system: blackgrass; experiment: Test B pre/postemergence blackgrass; format: in vivo, Alopecurus myosuroides
In short: as §1

[8] = test system: velvetleaf; experiment: Test B pre/postemergence velvetleaf; format: in vivo, Abutilon theophrasti
In short: as §1

[9] = test system: duck salad; experiment: Test B flood test duck salad; format: in vivo, Heteranthera limosa
In short: (§2)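 Each value is a visual injury score relative to controls, with 10 meaning complete control and 0 no effect. Evaluation took place twelve to sixteen days after the 2-leaf-stage plants were treated and kept in the greenhouse.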

[10] = test system: bamyardgrass; experiment: Test B flood test barnyardgrass; format: in vivo, Echinochloa crus-galli
In short: as §2

[11] = test system: surinam grass; experiment: Test B pre/postemergence surinam grass; format: in vivo, Brachiaria decumbens
In short: as §1

[12] = test system: smallflower flatsedge; experiment: Test B flood test smallflower flatsedge; format: in vivo, Cyperus difformis
In short: as §2

[13] = test system: wheat; experiment: Test B pre/postemergence wheat; format: in vivo, Triticum aestivum
In short: as §1

[14] = test system: morningglory; experiment: Test B pre/postemergence morningglory; format: in vivo, Ipomoea hederacea
In short: as §1

[15] = test system: rape; experiment: Test B pre/postemergence rape; format: in vivo, Brassica napus
In short: as §1

[16] = test system: bedstraw; experiment: Test B pre/postemergence bedstraw; format: in vivo, Galium aparine
In short: as §1

[17] = Postemergence, Rate 125 g/ha, scale of 0 to 10 where 0 is no effect and 10 is complete control
[18] = Preemergence, Rate 62 g/ha, scale 0 to 10 (0 no effect, 10 complete control)
[19] = Preemergence, Rate 125 g/ha, 0 is no effect, 10 is complete control
[20] = Preemergence, Rate 250 g/ha, scale 0 to 10, 0 is no effect, 10 is complete control
[21] = Preemergence, Rate 500 g/ha, scale 0 to 10 (0 no effect, 10 complete control)
[22] = Rate 62 g/ha, Postemergence, scale of 0 to 10 where 0 is no effect and 10 is complete control
[23] = Rate 250 g/ha, Postemergence, scale 0 to 10, 0 is no effect, 10 is complete control
[24] = Rate 500 g/ha, Postemergence, scale 0 to 10
[25] = Postemergence (flood test species), Rate 125 g/ha, scale of 0 to 10 where 0 is no effect and 10 is complete control
[26] = Rate 62 g/ha, Postemergence section, flood test species, scale of 0 to 10 where 0 is no effect and 10 is complete control
[27] = Rate 250 g/ha, Postemergence (flood test), scale 0 to 10, 0 is no effect, 10 is complete control
[28] = Rate 500 g/ha, listed under Postemergence (flood test species), scale 0 to 10

CN(C(=O)n1oc(=O)n(Cc2ccccc2)c1=O)c1ccccc1 [Compound 153]
0: Nutsedge plant response rating [1, 17] | Nutsedge plant response rating [1, 18] | Nutsedge plant response rating (0 to 10 scale) [1, 19] | Nutsedge plant response rating [1, 20] | Nutsedge plant response rating [1, 21] | Nutsedge plant response rating [1, 22] | Plant response rating, Nutsedge [1, 23] | Nutsedge plant response rating [1, 24] | Cocklebur plant response rating [2, 17] | Cocklebur plant response rating [2, 18] | Cocklebur plant response rating (0 to 10 scale) [2, 19] | Cocklebur plant response rating [2, 20] | Cocklebur plant response rating [2, 21] | Cocklebur plant response rating [2, 22] | Plant response rating, Cocklebur [2, 23] | Cocklebur plant response rating [2, 24] | Giant foxtail plant response rating [3, 17] | Giant foxtail plant response rating [3, 18] | Giant foxtail plant response rating (0 to 10 scale) [3, 19] | Giant foxtail plant response rating [3, 20] | Giant foxtail plant response rating [3, 21] | Giant foxtail plant response rating [3, 22] | Plant response rating, Giant foxtail [3, 23] | Giant foxtail plant response rating [3, 24] | Wild oats plant response rating [4, 18] | Wild oats plant response rating (0 to 10 scale) [4, 19] | Wild oats plant response rating [4, 20] | Wild oats plant response rating [4, 21] | Wild oats plant response rating [4, 22] | Plant response rating, Wild oats [4, 23] | Wild oats plant response rating [4, 24] | Redroot pigweed plant response rating [5, 17] | Redroot pigweed plant response rating [5, 18] | Redroot pigweed plant response rating (0 to 10 scale) [5, 19] | Redroot pigweed plant response rating [5, 20] | Redroot pigweed plant response rating [5, 21] | Redroot pigweed plant response rating [5, 22] | Plant response rating, Redroot pigweed [5, 23] | Redroot pigweed plant response rating [5, 24] | Soybean plant response rating [6, 17] | Soybean plant response rating [6, 18] | Soybean plant response rating (0 to 10 scale) [6, 19] | Soybean plant response rating [6, 20] | Soybean plant response rating [6, 21] | Soybean plant response rating [6, 22] | Plant response rating, Soybean [6, 23] | Soybean plant response rating [6, 24] | Blackgrass plant response rating [7, 17] | Blackgrass plant response rating [7, 18] | Blackgrass plant response rating (0 to 10 scale) [7, 19] | Blackgrass plant response rating [7, 20] | Blackgrass plant response rating [7, 21] | Blackgrass plant response rating [7, 22] | Plant response rating, Blackgrass [7, 23] | Blackgrass plant response rating [7, 24] | Velvetleaf plant response rating [8, 18] | Velvetleaf plant response rating (0 to 10 scale) [8, 19] | Velvetleaf plant response rating [8, 20] | Velvetleaf plant response rating [8, 21] | Velvetleaf plant response rating [8, 22] | Plant response rating, Velvetleaf [8, 23] | Velvetleaf plant response rating [8, 24] | Ducksalad plant response rating [9, 25] | Ducksalad plant response rating [9, 26] | Plant response rating, Ducksalad [9, 27] | Ducksalad plant response rating [9, 28] | Barnyardgrass plant response rating [10, 25] | Barnyardgrass plant response rating [10, 26] | Plant response rating, Barnyardgrass [10, 27] | Barnyardgrass plant response rating ([10]; Rate 500 g/ha, listed under Postemergence (flood test species), scale 0 to 10, 0 no effect, 10 complete control) | B. signalgrass plant response rating [11, 17] | B. signalgrass plant response rating [11, 18] | B. signalgrass plant response rating (0 to 10 scale) [11, 19] | B. signalgrass plant response rating [11, 20] | B. signalgrass plant response rating [11, 21] | B. signalgrass plant response rating [11, 22] | Plant response rating, B. signalgrass [11, 23] | B. signalgrass plant response rating ([11]; Rate 500 g/ha, Postemergence, scale of 0 to 10 where 0 is no effect and 10 is complete control) | S. Flatsedge plant response rating [12, 25] | S. Flatsedge plant response rating [12, 26] | Plant response rating, S. Flatsedge [12, 27] | S. Flatsedge plant response rating [12, 28] | Wheat plant response rating [13, 18] | Wheat plant response rating (0 to 10 scale) [13, 19] | Wheat plant response rating [13, 20] | Wheat plant response rating [13, 21] | Wheat plant response rating [13, 22] | Plant response rating, Wheat [13, 23] | Wheat plant response rating [13, 24] | Morningglory plant response rating [14, 17] | Morningglory plant response rating [14, 18] | Morningglory plant response rating (0 to 10 scale) [14, 19] | Morningglory plant response rating [14, 20] | Morningglory plant response rating [14, 21] | Morningglory plant response rating [14, 22] | Plant response rating, Morningglory [14, 23] | Morningglory plant response rating [14, 24] | Rape plant response rating [15, 17] | Rape plant response rating [15, 18] | Rape plant response rating (0 to 10 scale) [15, 19] | Rape plant response rating [15, 20] | Rape plant response rating [15, 21] | Rape plant response rating [15, 22] | Plant response rating, Rape [15, 23] | Rape plant response rating [15, 24] | Bedstraw plant response rating [16, 17] | Bedstraw plant response rating [16, 18] | Bedstraw plant response rating (0 to 10 scale) [16, 19] | Bedstraw plant response rating [16, 20] | Bedstraw plant response rating [16, 21] | Bedstraw plant response rating [16, 22] | Plant response rating, Bedstraw [16, 23] | Bedstraw plant response rating ([16]; Rate 500 g/ha, Postemergence, scale 0 to 10, 0 no effect, 10 complete control)

Reference: patent US6737383B1, “Herbicidal oxadiazolidines” (priority 1999, dated 2004)
